Data as given in patent publication US5449612A, “Process for identifying candida by means of chromogenic substances” (Serbio, priority 1990, dated 1995).
Like-named read-outs stand apart in the source and are kept apart here.

Legend:
[1] = tested on: β-D-glucosidase; settings: Casal et al. 1983; Polachek et al. 1987; cited from earlier work
[2] = tested on: isolated strains of Candida albicans, Candida guillermondii, Candida intermedia, Candida parapsilosis, Candida pseudotropicalis, Candida stellatoidea, Candida …; settings: YEAST-IDENT, liquid medium, 4 h at 37° C.; cited from earlier work
[3] = tested on: Candida guillermondii; assay: Tests on substrates against Candida guillermondii; parameters: Reading at 24 h: key to the marks not given beside the values; settings: Table V
[4] = tested on: C. albicans; assay: Diagnosis from non-isolated colonies on gelose 2/5; assay type: cell-based, Candida albicans
[5] = tested on: C. krusei; assay: Diagnosis from non-isolated colonies on gelose 2/5; assay type: cell-based, Candida krusei
Protocol: (§1) According to the afore-mentioned best mode of carrying out the invention, a culture medium containing the following ingredients is prepared; it is called gelose 2 below and is buffered to pH 6.0.
(§2) According to the afore-mentioned best mode of carrying out the invention, a culture medium containing the following ingredients is prepared; it is called gelose 5 below and is buffered to pH 6.0.
A mixture of several non-isolated strains of C. albicans, C. tropicalis, C. krusei, C. guillermondii, C. pseudotropicalis, C. parapsilosis, Cryptococcus neoformaas, Torulopsis glabrata and Trichosporon cutaneum was inoculated and incubated on the culture media according to Examples 1 to 5, containing the substrate N-Ac-β-D-galactosaminide-PNP of the prior art or the substrate H-Pro-pNA.AcOH according to the invention. The results, which were obtained particularly with geloses 2 and 5, are collated in Table VIII below, where the TTC column relates to results of tests undertaken separately on a standard gelose medium containing TTC.
(§3) A mixture of several non-isolated strains of C. albicans, C. tropicalis, C. krusei, C. guillermondii, C. pseudotropicalis, C. parapsilosis, C. zeylanoides, C. ciferii, C. cerevisiae, Torulopsis glabrata and Trichosporon cutaneum was inoculated and incubated on the culture media according to Example 5, containing the substrate N-Ac-β-D-galactosaminide-PNP of the prior art or the substrate H-Pro-pNA.AcOH according to the invention.

[6] = tested on: Tr. cutaneum; assay: Diagnosis from isolated colonies on gelose 2/5; assay type: cell-based, Trichosporon cutaneum; settings: Table VI; note: key: -: none; +: weak; ++: moderate; +++: intense; ++++: very intense
[7] = tested on: C. cerevisiae; assay: Diagnosis from non-isolated colonies on gelose 5; assay type: cell-based
Protocol: as §2, §3

[8] = tested on: C. krusei; assay: Diagnosis from isolated colonies on gelose 2/5; assay type: cell-based, Candida krusei
Protocol: as §1, §2
Several isolated strains of C. albicans, C. tropicalis, C. krusei, C. guillermondii, C. pseudotropicalis, C. parapsilosis, C. zeylanoides, T. glabrata and Trichosporon cutaneum were inoculated and incubated on the media of Examples 1 to 5. […] Part of the results obtained has been collated in Table VI below, where the TTC column relates to results of tests undertaken separately on a standard gelose medium containing TTC.
Several isolated strains of C. albicans, C. tropicalis, C. krusei, C. guillermondii and T. glabrata were inoculated and incubated on the media of Example 2 [containing either the substrate N-Ac-β-D-galactosaminide-PNP of the prior art, or the substrates H-L-PropNA.AcOH (specific for C. albicans), EM-L-Phg-L-ArgpNA.AcOH (specific for T. glabrata) and H-Gly-L-Pro-L-Arg-pNA.2AcOH (specific for C. krusei)]and of Example 5 (containing the substrate H-L-Pro-pNA.AcOH).

[9] = tested on: C. zeylanoides; assay: Diagnosis from non-isolated colonies on gelose 5; assay type: cell-based, Candida zeylanoides; settings: Table IX, 1 strain, gelose 5, cycloheximide; note: key: -: none; +: weak; ++: moderate; +++: intense; ++++: very intense
[10] = tested on: C. guillermondii; assay: Diagnosis from non-isolated colonies on gelose 2/5; assay type: cell-based, Candida guillermondii; note: key: -: none; +: weak; ++: moderate; +++: intense; ++++: very intense
[11] = tested on: C. parapsilosis; assay: Diagnosis from isolated colonies on gelose 2/5; assay type: cell-based, Candida parapsilosis; settings: Table VI; note: key: -: none; +: weak; ++: moderate; +++: intense; ++++: very intense
[12] = tested on: Cr. neoformans; assay: Diagnosis from non-isolated colonies on gelose 2/5; assay type: cell-based, Cryptococcus neoformans; settings: Table VIII; note: key: -: none; +: weak; ++: moderate; +++: intense; ++++: very intense
[13] = tested on: T. glabrata; assay: Diagnosis from non-isolated colonies on gelose 2/5; assay type: cell-based, Torulopsis glabrata; note: key: -: none; +: weak; ++: moderate; +++: intense; ++++: very intense
[14] = tested on: T. glabrata; assay: Diagnosis from isolated colonies on gelose 2/5; assay type: cell-based, Torulopsis glabrata; settings: isolated colonies; note: key: -: none; +: weak; ++: moderate; +++: intense; ++++: very intense
[15] = tested on: C. ciferii; assay: Diagnosis from non-isolated colonies on gelose 5; assay type: cell-based; settings: Table IX, 1 strain, gelose 5, cycloheximide; note: key: -: none; +: weak; ++: moderate; +++: intense; ++++: very intense
[16] = tested on: C. guillermondii; assay: Diagnosis from isolated colonies on gelose 2/5; assay type: cell-based, Candida guillermondii; settings: Table VI; note: key: -: none; +: weak; ++: moderate; +++: intense; ++++: very intense
[17] = tested on: Candida albicans; assay: Tests on substrates against Candida albicans, colour reading on buffered gelose; assay type: cell-based; parameters: key to Specificity: interference with C. albicans: (a): interference with C. albicans (++++); (b): interference with C. krusei (++); (c): interference with C. tropicalis (++)
[18] = tested on: Tr. cutaneum; assay: Diagnosis from non-isolated colonies on gelose 2/5; assay type: cell-based, Trichosporon cutaneum
[19] = tested on: C. parapsilosis; assay: Diagnosis from non-isolated colonies on gelose 2/5; assay type: cell-based, Candida parapsilosis; note: key: -: none; +: weak; ++: moderate; +++: intense; ++++: very intense
[20] = tested on: C. tropicalis; assay: Diagnosis from isolated colonies on gelose 2/5; assay type: cell-based, Candida tropicalis; settings: isolated colonies
[21] = tested on: C. albicans; assay: Diagnosis from isolated colonies on gelose 2/5; assay type: cell-based, Candida albicans; settings: isolated colonies; note: key: -: none; +: weak; ++: moderate; +++: intense; ++++: very intense
[22] = tested on: C. pseudotropicalis; assay: Diagnosis from isolated colonies on gelose 2/5; assay type: cell-based, Candida pseudotropicalis; settings: Table VI; note: key: -: none; +: weak; ++: moderate; +++: intense; ++++: very intense
[23] = tested on: C. tropicalis; assay: Diagnosis from non-isolated colonies on gelose 2/5; assay type: cell-based, Candida tropicalis; note: key: -: none; +: weak; ++: moderate; +++: intense; ++++: very intense
[24] = tested on: C. zeylanoides; assay: Diagnosis from isolated colonies on gelose 2/5; assay type: cell-based, Candida zeylanoides; settings: Table VI; note: key: -: none; +: weak; ++: moderate; +++: intense; ++++: very intense
[25] = tested on: C. pseudotropicalis; assay: Diagnosis from non-isolated colonies on gelose 2/5; assay type: cell-based, Candida pseudotropicalis; note: key: -: none; +: weak; ++: moderate; +++: intense; ++++: very intense
[26] = tested on: C. albicans, C. guillermondii, C. intermedia, C. lipolytica, C. lusitanica, C. parapsilosis, C. rugosa and C. zeylanoides; settings: U.S. Pat. No. 4,874,695, Table IV; cited from earlier work
[27] = tested on: N-acetyl-β-D-glucosaminidase; settings: Casal et al. 1983; Polachek et al. 1987; cited from earlier work
[28] = Table IX, 89 strains, gelose 5, cycloheximide
[29] = Table VIII, 13 strains, gelose 2
[30] = Table VIII, gelose 5 (maltose, cycloheximide)
[31] = gelose 5 (maltose, cycloheximide)
[32] = Table IX, 1 strain, gelose 5, cycloheximide
[33] = Table IX, 8 strains, gelose 5, cycloheximide
[34] = Table VIII, 8 strains, gelose 2
[35] = Table VI, gelose 5 (maltose, cycloheximide)
[36] = Table VII, gelose 5 with cycloheximide
[37] = Table IX, 2 strains, gelose 5, cycloheximide
[38] = Table VIII, 2 strains, gelose 2
[39] = Table IX, non-isolated colonies, 1 strain, gelose 5, cycloheximide

Compound: OC[C@H]1O[C@@H](Oc2ccc3cc(Br)ccc3c2)[C@H](O)[C@@H](O)[C@@H]1O [(6-bromo-β-naphthyl)-β-D-glucopyranoside]
- reaction with isolated strains [1]: positive reaction

Compound: O=C(Nc1ccc2ccccc2c1)[C@@H]1CCCN1 [H-L-Pro-NA]
- reaction with isolated strains [2]: positive reaction

Compound: CC(=O)O.O=C(Nc1ccc([N+](=O)[O-])cc1)[C@@H]1CCCN1 [H-L-Pro-pNA.AcOH]
- Reading at 24 h [3]: ++++
- Reading at t = 24 h [4, 28]: ++++
- Reading at t = 24 h [4, 29]: ++++
- Reading at t = 24 h [4, 30]: +++
- Reading at t = 24 h [5]: -
- Reading at t = 24 h ([6]; 1 strain, gelose 2): +
- Reading at t = 24 h [6, 31]: -
- Reading at t = 24 h [7]: -
- Reading at t = 24 h [8]: -
- Reading at t = 24 h [9]: -
- Reading at t = 24 h [10, 32]: -
- Reading at t = 24 h ([10]; Table VIII, 1 strain, gelose 2): +++
- Reading at t = 24 h [10, 30]: -
- Reading at t = 24 h ([11]; 5 strains, gelose 2): +++
- Reading at t = 24 h [11, 31]: -
- Reading at t = 24 h ([12]; 1 strain, gelose 2): -
- Reading at t = 24 h [12, 31]: -
- Reading at t = 24 h [13, 33]: -
- Reading at t = 24 h [13, 34]: -
- Reading at t = 24 h [13, 30]: -
- Reading at t = 24 h ([14]; Table VI, 4 strains, gelose 2): -
- Reading at t = 24 h [14, 35]: -
- Reading at t = 24 h ([14]; Table VII, 9 strains, gelose 2): -
- Reading at t = 24 h [14, 36]: -
- Reading at t = 24 h [15]: -
- Reading at t = 24 h ([16]; 2 strains, gelose 2): +++
- Reading at t = 24 h [16, 31]: -
- Specificity: nonspecific for the strains of Candida albicans ([17]; Table I): (a)
- Reading at 24 h ([17]; Table I, medium pH 6.0, YNB, glucose, agar, gentamycin, coloration or fluorescence): ++++
- Specificity: interference with C. albicans ([17]; Table V): (a)
- Reading at t = 24 h [18, 37]: -
- Reading at t = 24 h [18, 38]: ++
- Reading at t = 24 h [18, 30]: -
- Reading at t = 24 h [19, 32]: -
- Reading at t = 24 h [19, 38]: +++
- Reading at t = 24 h [19, 30]: -
- Reading at t = 24 h ([20]; Table VI, 4 strains, gelose 2): -
- Reading at t = 24 h [20, 35]: -
- Reading at t = 24 h ([20]; Table VII, 9 strains, gelose 2): -
- Reading at t = 24 h [20, 36]: -
- Reading at t = 24 h ([21]; Table VI, 10 strains, gelose 2): ++++
- Reading at t = 24 h [21, 35]: ++++
- Reading at t = 24 h ([21]; Table VII, 6 strains, gelose 2): ++++
- Reading at t = 24 h [21, 36]: ++++
- Reading at t = 24 h ([22]; 2 strains, gelose 2): -
- Reading at t = 24 h [22, 31]: -
- Reading at t = 24 h [23, 32]: -
- Reading at t = 24 h ([23]; Table VIII, 1 strain, gelose 2): -
- Reading at t = 24 h [23, 30]: -
- Reading at t = 24 h ([24]; 1 strain, gelose 2): ++
- Reading at t = 24 h [24, 31]: -
- Reading at t = 24 h [25, 37]: -
- Reading at t = 24 h ([25]; Table VIII, 1 strain, gelose 2): -
- Reading at t = 24 h [25, 30]: -

Compound: O=C(Nc1ccc([N+](=O)[O-])cc1)[C@@H]1CCCN1 [H-L-Pro-pNA]
- sensitivity towards strains of Candida [26]: sensitive towards several strains of Candida

Compound: CC(=O)N[C@H]1[C@H](Oc2ccc([N+](=O)[O-])cc2)O[C@H](CO)[C@H](O)[C@@H]1O [NAc-D-galactosaminide-PNP, N-Ac-β-D-galactosaminide-PNP, reference compound]
- Reading at t = 24 h [4, 28]: ++++ and negative for 2 out of 89 strains
- Reading at t = 24 h [4, 29]: ++++
- Reading at t = 24 h [5, 39]: -
- Reading at t = 24 h ([5]; Table VIII, non-isolated colonies, 6 strains, gelose 2): -
- Reading at t = 24 h ([6]; 1 strain, gelose 2): ++
- Reading at t = 24 h [7, 39]: -
- Reading at t = 24 h ([8]; Table VI, isolated colonies, 4 strains, gelose 2): -
- Reading at t = 24 h ([8]; Table VII, isolated colonies, 6 strains, gelose 2): -
- Reading at t = 24 h [9]: -
- Reading at t = 24 h [10, 32]: -
- Reading at t = 24 h ([10]; Table VIII, 1 strain, gelose 2): -
- Reading at t = 24 h ([11]; 5 strains, gelose 2): -
- Reading at t = 24 h ([12]; 1 strain, gelose 2): -
- Reading at t = 24 h [13, 33]: -
- Reading at t = 24 h [13, 34]: -
- Reading at t = 24 h ([14]; Table VI, 4 strains, gelose 2): -
- Reading at t = 24 h ([14]; Table VII, 9 strains, gelose 2): -
- Reading at t = 24 h [15]: -
- Reading at t = 24 h ([16]; 2 strains, gelose 2): -
- Reading at t = 24 h [18, 37]: -
- Reading at t = 24 h [18, 38]: - result for 1 strain and +++ result for the other strain
- Reading at t = 24 h [19, 32]: -
- Reading at t = 24 h [19, 38]: -
- Reading at t = 24 h ([20]; Table VI, 4 strains, gelose 2): 3 gave the result - and 1 the result ++
- Reading at t = 24 h ([20]; Table VII, 9 strains, gelose 2): positive (++) for only 1 of the 9 strains tested and negative
- Reading at t = 24 h ([21]; Table VI, 10 strains, gelose 2): ++++
- Reading at t = 24 h ([21]; Table VII, 6 strains, gelose 2): +++
- Reading at t = 24 h ([22]; 2 strains, gelose 2): -
- Reading at t = 24 h [23, 32]: -
- Reading at t = 24 h ([23]; Table VIII, 1 strain, gelose 2): -
- Reading at t = 24 h ([24]; 1 strain, gelose 2): -
- Reading at t = 24 h [25, 37]: -
- Reading at t = 24 h ([25]; Table VIII, 1 strain, gelose 2): -

Compound: CC(=O)N[C@H]1[C@H](Oc2ccc3ccccc3c2)O[C@H](CO)[C@@H](O)[C@@H]1O [β-naphthyl-N-acetyl-β-D-glucosaminide]
- reaction with isolated strains [27]: positive reaction
